According to patent publication US20250129028A1, “COMPOUNDS AND METHODS FOR YAP/TEAD MODULATION AND INDICATIONS THEREFOR” (Opna Bio SA, priority 2022, published 2025):

What follows are molecules tested on TEAD-dependent transcription (assay: TEAD-dependent transcription cell-based reporter assay (MSTO-211H+12XGTIIC luciferase)). Settings: Homo sapiens; MSTO-211H+12XGTIIC cell line, luciferase signal normalized to cell viability, 24 hours compound incubation; read-out: MSTO-211H GMean IC50 (uM) Cell Assay Reporter Cell Variant: TEAD.
Set-up: species or system human
From the text: Determine Inhibitor Activity Against TEAD-Dependent Transcription in a Cell-Based Reporter Assay
The human mesothelioma cell line MSTO-211H was stably transfected with a pGL4.21 plasmid containing a synthetic promoter with 12 copies of the GTIIC TEAD response element that drives the expression of a luciferase reporter gene^1 using Lipofectamine transfection reagent (Thermo Fisher). Transfected cells were selected using puromycin and single cell clones expressing this construct (referred to as MSTO-211H+12XGTIIC) were generated by limiting dilution. MSTO-211H cells was characterized by genetic alterations in key components of the Hippo pathway^2, resulting in up-regulation of YAP/TEAD-mediated transcription. […] To evaluate TEAD inhibitors, the MSTO-211H+12XGTIIC cell line was seeded in a 96-well plate in 50 μL of culture media at 1×10^4 cells per well and incubated at 37° C. overnight. Serial dilutions of compounds (in total volume of 50 μL of culture media) were added to the cells and incubated at 37° C. for 24 hours. Each plate included cells treated with DMSO as high controls and cells treated with 20 μM of the reference compound K-975 (a known TEAD inhibitor)^3 as low controls. Cell viability was assayed by the addition of 25 μL of CellTiter-Fluor reagent (Promega) followed by a 30-minute incubation at 37° C. and quantification of the fluorescence signal (Ex400/Em505). Subsequently, luciferase expression was assayed by the addition of 25 μL of ONE-Glo reagent (Promega) followed by a 10-minute incubation at room temperature and quantification of the luminescence signal. The luminescence signal was normalized to the fluorescence signal to correct for any loss in cell viability over the 24-hour compound incubation period. The percentage of inhibition of normalized luminescence signal, indicative of compound-mediated inhibition of TEAD-dependent transcription, at individual compound concentrations relative to high and low controls was calculated. The data were analyzed by using nonlinear regression to generate IC50 values for individual compounds.
With `CS(=O)(=O)CC(=O)N1CCc2ccc(Oc3ccc(C(F)(F)F)cc3)cc2C1` [P-0078, 2-(methylsulfonyl)-1-(7-(4-(trifluoromethyl)phen-oxy)-3,4-dihydroisoquin-olin-2(1H)-yl)ethan-1-one] the IC50 was 0.001 to 10 µM.
With `O=C1NCCC1CC(=O)N1CCc2ccc(Oc3ccc(C(F)(F)F)c(F)c3)cc2C1` (stereo not shown) [P-0142, 3-(2-(7-(3-fluoro-4-(trifluoromethyl)phen-oxy)-3,4-dihydroisoquin-olin-2(1H)-yl)-2-oxoeth-yl)pyrrolidin-2-one] the IC50 was 0.001 to 10 µM.
Work on `NS(=O)(=O)c1ccc(C(=O)N2CCc3ccc(Oc4ccc(C(F)(F)F)cc4)cc3C2)cc1` [P-0126, 4-(7-(4-(trifluorometh-yl)phenoxy)-1,2,3,4-tetrahydroisoquinoline-2-carbonyl)benzene-sulfonamide] yielded an IC50 of 0.001 to 10 µM.
In the case of `Nc1nccc(C(=O)N2CCc3ccc(Oc4ccc(C(F)(F)F)cc4)cc3C2)n1` [P-0092, (2-aminopyrimidin-4-yl)-(7-(4-(trifluoromethyl)-phenoxy)-3,4-dihydroiso-quinolin-2(1H)-yl)meth-anone], the IC50 is reported as 0.001 to 10 µM.
With `O=C(CCc1ncc[nH]1)N1CCc2c(cccc2Oc2ccc(C(F)(F)F)cc2)C1` [P-0249, 3-(1H-imidazol-2-yl)-1-(5-(4-(trifluoromethyl)-phenoxy)-3,4-dihydro-isoquinolin-2(1H)-yl)pro-pan-1-one] the IC50 was 0.001 to 10 µM.
In the case of `O=C1CC(C(=O)N2CCc3ccc(Oc4ccc(C(F)(F)F)cc4)cc3C2)CCN1` (stereo not shown) [P-0130, 4-(7-(4-(trifluoromethyl)-phenoxy)-1,2,3,4-tetra-hydroisoquinoline-2-carbonyl)piperidin-2-one], the IC50 is reported as 0.001 to 10 µM.
`CC(C)NS(=O)(=O)N1CCc2ccc(Oc3ccc(C(F)(F)F)cc3)cc2C1` [P-0020, N-isopropyl-7-(4-(trifluoromethyl)phen-oxy)-3,4-dihydroiso-quinoline-2(1H)-sulfon-amide] gave an IC50 of 0.001 to 10 µM.
Work on `CS(=O)(=O)CCC(=O)N1CCc2ccc(Oc3ccc(C(F)(F)F)cc3)c(-n3cc(C(F)(F)F)cn3)c2C1` [P-0208, 3-(methylsulfonyl)-1-(8-(4-(trifluoromethyl)-1H-pyrazol-1-yl)-7-(4-(trifluoromethyl)phen-oxy)-3,4-dihydroisoquin-olin-2(1H)-yl)propan-1-one] yielded an IC50 of 0.001 to 10 µM.
In the case of `CS(=O)(=O)CCC(=O)N1CCc2ccc(Oc3ccc(C(F)(F)F)cc3)cc2C1CC1CN(c2ccccn2)C1` (stereo not shown) [P-0201, 3-(methylsulfonyl)-1-(1-((1-(pyridin-2-yl)azeti-din-3-yl)methyl)-7-(4-(trifluoromethyl)phen-oxy)-3,4-dihydroisoquin-olin-2(1H)-yl)propan-1-one], the IC50 is reported as 0.001 to 10 µM.
With `CS(=O)(=O)c1cc(C(=O)N2CCc3ccc(Oc4ccc(C(F)(F)F)cc4)cc3C2)ccn1` [P-0081, (2-(methylsulfonyl)pyr-idin-4-yl)(7-(4-(trifluoro-methyl)phenoxy)-3,4-dihydroisoquinolin-2(1H)-yl)methanone] the IC50 was 0.001 to 10 µM.
In the case of `O=C(NC1CCCC1)N1CCc2ccc(Oc3ccc(C(F)(F)F)cc3)cc2C1` [P-0037, N-cyclopentyl-7-(4-(trifluoromethyl)phen-oxy)-3,4-dihydroiso-quinoline-2(1H)-carbox-amide], the IC50 is reported as 0.001 to 10 µM.
With `CS(=O)(=O)CCC(=O)N1CCc2c(cccc2-c2ccc(C(F)(F)F)cc2)C1` [P-0271, 3-(methylsulfonyl)-1-(5-(4-(trifluoromethyl)phen-yl)-3,4-dihydroisoquin-olin-2(1H)-yl)propan-1-one] the IC50 was 0.001 to 10 µM.
In the case of `Nc1cncc(C(=O)N2CCc3c(cccc3Oc3ccc(C(F)(F)F)cc3)C2)n1` [P-0244, (6-aminopyrazin-2-yl)(5-(4-(trifluoromethyl)phen-oxy)-3,4-dihydroisoquin-olin-2(1H)-yl)methanone], the IC50 is reported as 0.001 to 10 µM.
`CCC1c2cc(Oc3ccc(C(F)(F)F)cc3)ccc2CCN1C(=O)CNC(N)=O` (stereo not shown) [P-0219, 1-(2-(1-ethyl-7-(4-(trifluoromethyl)phen-oxy)-3,4-dihydroisoquin-olin-2(1H)-yl)-2-oxoeth-yl)urea] was tested, and the IC50 was 0.001 to 10 µM.
Molecule `CS(=O)(=O)CCC(=O)N1CCc2ccc(Oc3ccc(C(F)(F)F)c(F)c3)cc2C1` [P-0085, 1-(7-(3-fluoro-4-(trifluoromethyl)phen-oxy)-3,4-dihydroisoquin-olin-2(1H)-yl)-3-(methyl-sulfonyl)propan-1-one] has an IC50 of 0.001 to 10 µM.
For `CN1C(=O)SC(CC(=O)N2CCc3ccc(Oc4ccc(C(F)(F)F)c(F)c4)cc3C2)C1=O` (stereo not shown) [P-0138, 5-(2-(7-(3-fluoro-4-(trifluoromethyl)phen-oxy)-3,4-dihydroisoquin-olin-2(1H)-yl)-2-oxoeth-yl)-3-methylthiazolidine-2,4-dione], the IC50 was 0.001 to 10 µM.
With `O=C1CC(C(=O)N2CCc3ccc(Oc4ccc(C(F)(F)F)cc4)cc3C2)CN1` (stereo not shown) [P-0088, 4-(7-(4-(trifluorometh-yl)phenoxy)-1,2,3,4-tetrahydroisoquinoline-2-carbonyl)pyrrolidin-2-one] the IC50 was 0.001 to 10 µM.
Work on `O=C(C1CC1)N1CCc2ccc(Oc3ccc(C(F)(F)F)cc3)cc2C1` [P-0015, cyclopropyl(7-(4-(trifluoromethyl)phen-oxy)-3,4-dihydroiso-quinolin-2(1H)-yl)-methanone] yielded an IC50 of 0.001 to 10 µM.
For `CC(C)=Cc1c(Oc2ccc(C(F)(F)F)cc2)ccc2c1CN(C(=O)CCS(C)(=O)=O)CC2` [P-0221, 1-(8-(2-methylprop-1-en-1-yl)-7-(4-(trifluorometh-yl)phenoxy)-3,4-dihydro-isoquinolin-2(1H)-yl)-3-(methylsulfonyl)pro-pan-1-one], the IC50 was 0.001 to 10 µM.
In the case of `COC(=O)CCS(=O)(=O)N1CCc2ccc(Oc3ccc(C(F)(F)F)cc3)cc2C1` [P-0050, methyl 3-((7-(4-(trifluoro-methyl)phenoxy)-3,4-dihydroisoquinolin-2(1H)-yl)sulfonyl)pro-panoate], the IC50 is reported as 0.001 to 10 µM.
`NC(=O)c1cc(C(=O)N2CCc3ccc(Oc4ccc(C(F)(F)F)cc4)cc3C2)n[nH]1` [P-0124, 3-(7-(4-(trifluorometh-yl)phenoxy)-1,2,3,4-tetrahydroisoquinoline-2-carbonyl)-1H-pyrazole-5-carboxamide] showed an IC50 of 0.001 to 10 µM.
Work on `O=C(Cc1nnc[nH]1)N1CCc2c(cccc2Oc2ccc(C(F)(F)F)cc2)C1` [P-0251, 2-(4H-1,2,4-triazol-3-yl)-1-(5-(4-(trifluoromethyl)-phenoxy)-3,4-dihydroiso-quinolin-2(1H)-yl)ethan-1-one] yielded an IC50 of 0.001 to 10 µM.
`O=C(Nc1ccccc1)N1CCc2ccc(Oc3ccc(C(F)(F)F)cc3)cc2C1` [P-0022, N-phenyl-7-(4-(trifluoro-methyl)phenoxy)-3,4-dihydroisoquinoline-2(1H)-carboxamide] showed an IC50 of 0.001 to 10 µM.
Work on `O=C(C1CS(=O)(=O)C1)N1CCc2ccc(Oc3ccc(C(F)(F)F)cc3)cc2C1` [P-0077, (1,1-dioxidothietan-3-yl)(7-(4-(trifluorometh-yl)phenoxy)-3,4-dihydro-isoquinolin-2(1H)-yl)-methanone] yielded an IC50 of 0.001 to 10 µM.
In the case of `COC(=O)[C@@H]1Cc2ccc(Oc3ccc(C(F)(F)F)cc3)cc2CN1C(=O)CCS(C)(=O)=O` [P-0224, methyl (S)-2-(3-(methyl-sulfonyl)propanoyl)-7-(4-(trifluoromethyl)-phenoxy)-1,2,3,4-tetra-hydroisoquinoline-3-carboxylate], the IC50 is reported as 0.001 to 10 µM.
In the case of `CN1CC(C(=O)N2CCc3ccc(Oc4ccc(C(F)(F)F)c(F)c4)cc3C2)C1` [P-0097, (7-(3-fluoro-4-(trifluoro-methyl)phenoxy)-3,4-dihydroisoquinolin-2(1H)-yl)(1-methylazet-idin-3-yl)methanone], the IC50 is reported as 0.001 to 10 µM.
Work on `CCCCC(=O)N1CCc2ccc(Oc3ccc(C(F)(F)F)cc3)cc2C1` [P-0023, 1-(7-(4-(trifluorometh-yl)phenoxy)-3,4-dihydro-isoquinolin-2(1H)-yl)-pentan-1-one] yielded an IC50 of 0.001 to 10 µM.
With `CS(=O)(=O)N1CCc2ccc(Oc3ccc(C(F)(F)F)cc3)cc2C1` [P-0005, 2-(methylsulfonyl)-7-(4-(trifluoromethyl)phen-oxy)-1,2,3,4-tetrahydro-isoquinoline] the IC50 was 0.001 to 10 µM.
`C=CC(=O)N1CCC(C(=O)N2CCc3ccc(Oc4ccc(C(F)(F)F)c(F)c4)cc3C2)C1` (stereo not shown) [P-0119, 1-(3-(7-(3-fluoro-4-(trifluoromethyl)phen-oxy)-1,2,3,4-tetrahydro-isoquinoline-2-carbon-yl)pyrrolidin-1-yl)prop-2-en-1-one] gave an IC50 of 0.001 to 10 µM.
`CS(=O)(=O)CCC(=O)N1CCc2ccc(Oc3ccc(C(F)(F)F)cc3)c(-c3ccc(C4CC4)nc3)c2C1` [P-0207, 1-(8-(6-cyclopropylpyr-idin-3-yl)-7-(4-(trifluoro-methyl)phenoxy)-3,4-dihydroisoquinolin-2(1H)-yl)-3-(methylsul-fonyl)propan-1-one] was tested, and the IC50 was 0.001 to 10 µM.
With `CC(C)S(=O)(=O)N1CCc2ccc(Oc3ccc(C(F)(F)F)cc3)cc2C1` [P-0021, 2-(isopropylsulfonyl)-7-(4-(trifluoromethyl)-phenoxy)-1,2,3,4-tetra-hydroisoquinoline] the IC50 was 0.001 to 10 µM.
